# From the NIST ThermoML archive (doi:10.1016/j.jct.2016.07.046)
# ± gives the expanded uncertainty stated by the source.
# Assay: mn = molality of the nth substance listed, in mol/kg
# Settings: 87 kPa, Liquid, Vibrating tube method
structure (smiles),measurement,setting,value
CCn1cc[n+](C)c1.O=S(=O)([O-])O [1-ethyl-3-methylimidazolium hydrogen sulfate] + O,mass density,"293.15 K, m1 = 0.05",1001.85 ± 3 kg/m3
same,mass density,"293.15 K, m1 = 0.1",1005.19 ± 3 kg/m3
same,mass density,"293.15 K, m1 = 0.15",1008.26 ± 3 kg/m3
same,mass density,"298.15 K, m1 = 0.05",1000.62 ± 3 kg/m3
same,mass density,"298.15 K, m1 = 0.1",1003.89 ± 3 kg/m3
same,mass density,"298.15 K, m1 = 0.15",1006.91 ± 3 kg/m3
same,mass density,"303.15 K, m1 = 0.05",999.15 ± 3 kg/m3
same,mass density,"303.15 K, m1 = 0.1",1002.36 ± 3 kg/m3
same,mass density,"303.15 K, m1 = 0.15",1005.32 ± 3 kg/m3
same,mass density,"308.15 K, m1 = 0.05",997.45 ± 3 kg/m3
same,mass density,"308.15 K, m1 = 0.1",1000.61 ± 3 kg/m3
same,mass density,"308.15 K, m1 = 0.15",1003.53 ± 3 kg/m3
same,mass density,"313.15 K, m1 = 0.05",995.6 ± 3 kg/m3
same,mass density,"313.15 K, m1 = 0.1",998.69 ± 3 kg/m3
same,mass density,"313.15 K, m1 = 0.15",1001.51 ± 3 kg/m3
NCC(=O)O [2-aminoacetic acid] + O,mass density,"293.15 K, m1 = 0.0547",999.97 ± 3 kg/m3
same,mass density,"293.15 K, m1 = 0.1057",1001.59 ± 3 kg/m3
same,mass density,"293.15 K, m1 = 0.1546",1003.13 ± 3 kg/m3
same,mass density,"293.15 K, m1 = 0.2061",1004.74 ± 3 kg/m3
same,mass density,"293.15 K, m1 = 0.2531",1006.2 ± 3 kg/m3
same,mass density,"293.15 K, m1 = 0.3046",1007.78 ± 3 kg/m3
same,mass density,"293.15 K, m1 = 0.3538",1009.28 ± 3 kg/m3
same,mass density,"293.15 K, m1 = 0.403",1010.77 ± 3 kg/m3
same,mass density,"293.15 K, m1 = 0.452",1012.24 ± 3 kg/m3
same,mass density,"293.15 K, m1 = 0.499",1013.64 ± 3 kg/m3
same,mass density,"298.15 K, m1 = 0.0547",998.8 ± 3 kg/m3
same,mass density,"298.15 K, m1 = 0.1057",1000.41 ± 3 kg/m3
same,mass density,"298.15 K, m1 = 0.1546",1001.94 ± 3 kg/m3
same,mass density,"298.15 K, m1 = 0.2061",1003.54 ± 3 kg/m3
same,mass density,"298.15 K, m1 = 0.2531",1004.99 ± 3 kg/m3
same,mass density,"298.15 K, m1 = 0.3046",1006.56 ± 3 kg/m3
same,mass density,"298.15 K, m1 = 0.3538",1008.06 ± 3 kg/m3
same,mass density,"298.15 K, m1 = 0.403",1009.54 ± 3 kg/m3
same,mass density,"298.15 K, m1 = 0.452",1011 ± 3 kg/m3
same,mass density,"298.15 K, m1 = 0.499",1012.39 ± 3 kg/m3
same,mass density,"303.15 K, m1 = 0.0547",997.39 ± 3 kg/m3
same,mass density,"303.15 K, m1 = 0.1057",998.99 ± 3 kg/m3
same,mass density,"303.15 K, m1 = 0.1546",1000.51 ± 3 kg/m3
same,mass density,"303.15 K, m1 = 0.2061",1002.1 ± 3 kg/m3
same,mass density,"303.15 K, m1 = 0.2531",1003.53 ± 3 kg/m3
same,mass density,"303.15 K, m1 = 0.3046",1005.09 ± 3 kg/m3
same,mass density,"303.15 K, m1 = 0.3538",1006.57 ± 3 kg/m3
same,mass density,"303.15 K, m1 = 0.403",1008.04 ± 3 kg/m3
same,mass density,"303.15 K, m1 = 0.452",1009.48 ± 3 kg/m3
same,mass density,"303.15 K, m1 = 0.499",1010.86 ± 3 kg/m3
same,mass density,"308.15 K, m1 = 0.0547",995.77 ± 3 kg/m3
same,mass density,"308.15 K, m1 = 0.1057",997.36 ± 3 kg/m3
same,mass density,"308.15 K, m1 = 0.2061",1000.45 ± 3 kg/m3
same,mass density,"308.15 K, m1 = 0.2531",1001.88 ± 3 kg/m3
same,mass density,"308.15 K, m1 = 0.3046",1003.42 ± 3 kg/m3
same,mass density,"308.15 K, m1 = 0.3538",1004.89 ± 3 kg/m3
same,mass density,"308.15 K, m1 = 0.403",1006.35 ± 3 kg/m3
same,mass density,"308.15 K, m1 = 0.452",1007.78 ± 3 kg/m3
same,mass density,"308.15 K, m1 = 0.499",1009.14 ± 3 kg/m3
same,mass density,"313.15 K, m1 = 0.0547",993.92 ± 3 kg/m3
same,mass density,"313.15 K, m1 = 0.1057",995.5 ± 3 kg/m3
same,mass density,"313.15 K, m1 = 0.1546",997 ± 3 kg/m3
same,mass density,"313.15 K, m1 = 0.2531",999.99 ± 3 kg/m3
same,mass density,"313.15 K, m1 = 0.3046",1001.53 ± 3 kg/m3
same,mass density,"313.15 K, m1 = 0.3538",1002.98 ± 3 kg/m3
same,mass density,"313.15 K, m1 = 0.403",1004.43 ± 3 kg/m3
same,mass density,"313.15 K, m1 = 0.452",1005.86 ± 3 kg/m3
same,mass density,"313.15 K, m1 = 0.499",1007.22 ± 3 kg/m3
N[C@@H](CO)C(=O)O [L-serine] + O,mass density,"293.15 K, m1 = 0.0529",1000.59 ± 3 kg/m3
same,mass density,"293.15 K, m1 = 0.1005",1002.7 ± 3 kg/m3
same,mass density,"293.15 K, m1 = 0.1529",1005 ± 3 kg/m3
same,mass density,"293.15 K, m1 = 0.2024",1007.15 ± 3 kg/m3
same,mass density,"293.15 K, m1 = 0.2541",1009.38 ± 3 kg/m3
same,mass density,"293.15 K, m1 = 0.3019",1011.42 ± 3 kg/m3
same,mass density,"293.15 K, m1 = 0.3525",1013.56 ± 3 kg/m3
same,mass density,"293.15 K, m1 = 0.4023",1015.65 ± 3 kg/m3
same,mass density,"293.15 K, m1 = 0.4535",1017.77 ± 3 kg/m3
same,mass density,"293.15 K, m1 = 0.5008",1019.72 ± 3 kg/m3
same,mass density,"298.15 K, m1 = 0.0529",999.41 ± 3 kg/m3
same,mass density,"298.15 K, m1 = 0.1005",1001.5 ± 3 kg/m3
same,mass density,"298.15 K, m1 = 0.1529",1003.78 ± 3 kg/m3
same,mass density,"298.15 K, m1 = 0.2024",1005.92 ± 3 kg/m3
same,mass density,"298.15 K, m1 = 0.2541",1008.13 ± 3 kg/m3
same,mass density,"298.15 K, m1 = 0.3019",1010.15 ± 3 kg/m3
same,mass density,"298.15 K, m1 = 0.3525",1012.27 ± 3 kg/m3
same,mass density,"298.15 K, m1 = 0.4023",1014.34 ± 3 kg/m3
same,mass density,"298.15 K, m1 = 0.4535",1016.44 ± 3 kg/m3
same,mass density,"298.15 K, m1 = 0.5008",1018.37 ± 3 kg/m3
same,mass density,"303.15 K, m1 = 0.0529",997.99 ± 3 kg/m3
same,mass density,"303.15 K, m1 = 0.1005",1000.06 ± 3 kg/m3
same,mass density,"303.15 K, m1 = 0.1529",1002.33 ± 3 kg/m3
same,mass density,"303.15 K, m1 = 0.2024",1004.45 ± 3 kg/m3
same,mass density,"303.15 K, m1 = 0.2541",1006.64 ± 3 kg/m3
same,mass density,"303.15 K, m1 = 0.3019",1008.65 ± 3 kg/m3
same,mass density,"303.15 K, m1 = 0.3525",1010.76 ± 3 kg/m3
same,mass density,"303.15 K, m1 = 0.4023",1012.81 ± 3 kg/m3
same,mass density,"303.15 K, m1 = 0.4535",1014.9 ± 3 kg/m3
same,mass density,"303.15 K, m1 = 0.5008",1016.82 ± 3 kg/m3
same,mass density,"308.15 K, m1 = 0.0529",996.36 ± 3 kg/m3
same,mass density,"308.15 K, m1 = 0.1005",998.42 ± 3 kg/m3
same,mass density,"308.15 K, m1 = 0.1529",1000.67 ± 3 kg/m3
same,mass density,"308.15 K, m1 = 0.2024",1002.77 ± 3 kg/m3
same,mass density,"308.15 K, m1 = 0.2541",1004.94 ± 3 kg/m3
same,mass density,"308.15 K, m1 = 0.3019",1006.94 ± 3 kg/m3
same,mass density,"308.15 K, m1 = 0.3525",1009.04 ± 3 kg/m3
same,mass density,"308.15 K, m1 = 0.4023",1011.08 ± 3 kg/m3
same,mass density,"308.15 K, m1 = 0.4535",1013.16 ± 3 kg/m3
same,mass density,"308.15 K, m1 = 0.5008",1015.07 ± 3 kg/m3
same,mass density,"313.15 K, m1 = 0.0529",994.5 ± 3 kg/m3
same,mass density,"313.15 K, m1 = 0.1005",996.54 ± 3 kg/m3
same,mass density,"313.15 K, m1 = 0.1529",998.77 ± 3 kg/m3
same,mass density,"313.15 K, m1 = 0.2024",1000.85 ± 3 kg/m3
same,mass density,"313.15 K, m1 = 0.2541",1003.01 ± 3 kg/m3
same,mass density,"313.15 K, m1 = 0.3019",1004.99 ± 3 kg/m3
same,mass density,"313.15 K, m1 = 0.3525",1007.07 ± 3 kg/m3
same,mass density,"313.15 K, m1 = 0.4023",1009.11 ± 3 kg/m3
same,mass density,"313.15 K, m1 = 0.4535",1011.18 ± 3 kg/m3
same,mass density,"313.15 K, m1 = 0.5008",1013.07 ± 3 kg/m3
